One assay concerns NF-κB. Nature of the assay: NF-κB luciferase reporter assay in RAW 264.7 macrophages. It is filed as cell-based. As to conditions: Mus musculus, RAW264.7; RAW 264.7 reporter cells, 2 hour pretreatment, 200 ng/ml LPS for 3 hours; read-out: NF-kB inhibitory activity IC50. On the procedure: RAW 264.7 cells stably expressing a 3× NFkB response elemement-drive luciferase reporter were seeded into 96 well plates in sera-free medium (Optimem) 18 hours prior to compound application. Compounds of the invention were prepared by first making 100 mM stock solutions in EtOH. Stock solutions were then diluted 1:100 in low LPS FBS (Gemini BenchMark 100-106), mixed vigorously and allowed to incubate at room temperature for 30 minutes. 1:2 serial dilutions were then made in FBS supplemented with 1% EtOH, mixed vigorously, and again allowed to incubate at room temperature for 30 minutes before adding to RAW 264.7 reporter cells (final concentrations: 10% FBS, 100 uM highest compound dilution, 0.1% EtOH) for a 2 hour pretreatment prior to stimulation with LPS. Cells were then stimulated with 200 ng/ml LPS or vehicle control for 3 hours in the presence of the compounds of the invention. A set of six vehicles was left unstimulated with LPS in order to measure the assay floor. AlamarBlue viability dye (Invitrogen) was added to cells simultaneously with the delivery of LPS (final AlamarBlue concentration of 10%).
After the 3 h incubation period with LPS, cell viability was measured by reading fluorescence (excitation 550 nm, emission 595 nm) with a Perkin Elmer Victor V plate reader. Then cell media was aspirated from each well. Luciferase signal was then developed by addition of the Britelite Plus reagent (Perkin Elmer). Luciferase activity was measured with the Perkin Elmer Victor V plate reader. NF-κB activity was expressed as a percent of the vehicle control wells (stimulated with LPS). Compounds were tested at 6 dose point titrations in triplicate to determine IC50 values. Table 1 summarizes the […] values for a number of bis-fatty acid conjugates in this NF-κB luciferase reporter assay.

For assay [1], the system named is ApoB secretion in HepG2 cells. Description: ApoB secretion in HepG2 cells (ELISA). Type of assay: cell-based. Particulars: Homo sapiens, incubated for 16 hours, FIG. 1, read-out: IC50 (concentration at which 50% of ApoB secretion is inhibited). On the procedure:
HepG2 cells (ATCC) are seeded at 25,000 cells per well in collagen-coated 96-well plates in growth media (DMEM with 10% fetal bovine serum). The following day, bis-fatty acid conjugates are complexed to lipoprotein-deficient fetal bovine serum at the appropriate concentration. Growth media is then removed from and the HepG2 cells are washed once with PBS. The lipoprotein-deficient FBS with the complexed bis-fatty acid conjugates is added to DMEM for a final 10% concentration. Each concentration of bis-fatty acid is tested in triplicate. Cells are incubated for 16 hours with the bis-fatty acid. Alamar Blue® (Invitrogen) is then added to the media to determine cell viability per the manufacturer's instructions. Two hours after Alamar Blue® addition, the media is removed and placed in a black 96-well plate. The plate is then read at 550 nm/590 nm to determine cell viability. The media is then used to determine ApoB concentrations using ELISA kits (Mabtech AB). Percent inhibition of ApoB secretion is determined by normalizing data to vehicle treated wells. For a given compound, an IC50 (concentration at which 50% of ApoB secretion is inhibited) can also be determined by using a 4 parameter-fit inhibition curve model (Graph Pad Prism®).

pIC50: −log10 of the molar value.

As for `CC/C=C\C/C=C\C/C=C\C/C=C\C/C=C\C/C=C\CCC(=O)N[C@H](C(=O)OC)[C@@H](C)OC(=O)[C@H](C)NC(=O)CCC/C=C\C/C=C\C/C=C\C/C=C\C/C=C\CC` [I-65, (2S,3R)-methyl 2-((4Z,7Z,10Z,13Z,16Z,19Z)-docosa-4,7,10,13,16,19-hexaenamido)-3-((S)-2-((5Z,8Z,11Z,14Z,17Z)-icosa-5,8,11,14,17-pentaenamido)propanoyloxy)butanoate], in the assay on NF-κB, the pIC50 is over 4.30.

Turning to `CC/C=C\C/C=C\C/C=C\C/C=C\C/C=C\C/C=C\CCC(=O)NCCN(C)CCNC(=O)CCC/C=C\C/C=C\C/C=C\C/C=C\C/C=C\CC` [I-39, (4Z,7Z,10Z,13Z,16Z,19Z)-docosa-4,7,10,13,16,19-hexaenoic acid (2-{[2((5Z,8Z,11Z,14Z,17Z)-icosa-5,8,11,14,17-pentaenoylamino)-ethyl]-methyl-amino}-ethyl)-amide], in the assay on NF-κB, the pIC50 was over 4.30.

With `CC/C=C\C/C=C\C/C=C\C/C=C\C/C=C\C/C=C\CCC(=O)N[C@@H](C)C(=O)O[C@H](C)[C@H](NC(=O)CCC/C=C\C/C=C\C/C=C\C/C=C\C/C=C\CC)C(=O)OC` [I-66, (2S,3R)-methyl 3-((S)-2-((4Z,7Z,10Z,13Z,16Z,19Z)-docosa-4,7,10,13,16,19-hexaenamido)propanoyloxy)-2-((5Z,8Z,11Z,14Z,17Z)-icosa-5,8,11,14,17-pentaenamido)butanoate], the pIC50 in assay [1] was 5.02; with NF-κB, over 4.30.

`CC/C=C\C/C=C\C/C=C\C/C=C\C/C=C\C/C=C\CCC(=O)N[C@@H](CCCCNC(=O)CCC/C=C\C/C=C\C/C=C\C/C=C\C/C=C\CC)C(=O)O` [I-45, (S)-2-((4Z,7Z,10Z,13Z,16Z,19Z)-docosa-4,7,10,13,16,19-hexaenoylamino)-6-((5Z,8Z,11Z,14Z,17Z)-icosa-5,8,11,14,17-pentaenoylamino)-hexanoic acid]: the pIC50 with NF-κB was over 4.30.

As for `CC/C=C\C/C=C\C/C=C\C/C=C\C/C=C\C/C=C\CCC(=O)NCCNC(=O)CC/C=C\C/C=C\C/C=C\C/C=C\C/C=C\C/C=C\CC` [I-1, (4Z,7Z,10Z,13Z,16Z,19Z)-docosa-4,7,10,13,16,19-hexaenoic acid [2-((4Z,7Z,10Z,13Z,16Z,19Z)-docosa-4,7,10,13,16,19-hexaenoylamino)-ethyl]-amide], the pIC50 with NF-κB was over 3.70.

In the case of `CC/C=C\C/C=C\C/C=C\C/C=C\C/C=C\CCCC(=O)N[C@@H](CCCCNC(=O)CCCC[C@@H]1CCSS1)C(=O)O` [I-107, (S)-6-((R)-5-[1,2]dithiolan-3-yl-pentanoylamino)-2-((5Z,8Z,11Z,14Z,17Z)-icosa-5,8,11,14,17-pentaenoylamino)-hexanoic acid], in the assay on NF-κB, the pIC50 is over 3.70.

On to `CC/C=C\C/C=C\C/C=C\C/C=C\C/C=C\C/C=C\CCC(=O)O` [DHA, docosahexaenoic acid, reference compound], for which the pIC50 with NF-κB was under 3.70.

`CC/C=C\C/C=C\C/C=C\C/C=C\C/C=C\C/C=C\CCC(=O)NCCNC(=O)CCC/C=C\C/C=C\C/C=C\C/C=C\C/C=C\CC` [I-37, (4Z,7Z,10Z,13Z,16Z,19Z)-docosa-4,7,10,13,16,19-hexaenoic acid [2-((5Z,8Z,11Z,14Z,17Z)-icosa-5,8,11,14,17-pentaenoylamino)-ethyl]-amide]: the pIC50 in the assay with NF-κB is over 3.70.

Regarding `CC/C=C\C/C=C\C/C=C\C/C=C\C/C=C\C/C=C\CCC(=O)N1CCN(C(=O)CCC/C=C\C/C=C\C/C=C\C/C=C\C/C=C\CC)CC1` [I-67, (4Z,7Z,10Z,13Z,16Z,19Z)-1-[4-((5Z,8Z,11Z,14Z,17Z)-icosa-5,8,11,14,17-pentaenoyl)-piperazin-1-yl]-docosa-4,7,10,13,16,19-hexaen-1-one], the pIC50 with NF-κB was over 3.70.

As to `CC/C=C\C/C=C\C/C=C\C/C=C\C/C=C\CCCC(=O)O` [EPA, eicosapentaenoic acid, reference compound], the pIC50 in the assay with NF-κB is under 3.70.

With `CC/C=C\C/C=C\C/C=C\C/C=C\C/C=C\C/C=C\CCC(=O)NCCN(C)CCNC(=O)CC/C=C\C/C=C\C/C=C\C/C=C\C/C=C\C/C=C\CC` [I-2, (4Z,7Z,10Z,13Z,16Z,19Z)-docosa-4,7,10,13,16,19-hexaenoic acid (2-{[2-((4Z,7Z,10Z,13Z,16Z,19Z)-docosa-4,7,10,13,16,19-hexaenoylamino)-ethyl]-methyl-amino}-ethyl)-amide], the pIC50 with NF-κB is over 4.30.
